{
  "source": "paper PMC5218480",
  "about": "(PLoS ONE, 2017)",
  "tested_on": "MV-4-11 cells",
  "assay": "Gene expression microarray analysis (Affymetrix PrimeView) and GSEA",
  "format": "cell-based, human",
  "design": "RFU PODN (11730768_x_at) / Fold change /veh PODN (11730768_x_at) / RFU LINC00158 (11744669_a_at) / Fold change /veh LINC00158 (11744669_a_at) / RFU DUSP10 (11751237_a_at) / Fold change /veh DUSP10 (11751237_a_at) / RFU ID3 (11757404_x_at) / Fold change /veh ID3 (11757404_x_at) / RFU PLEKHG5 (11737974_s_at) / Fold change /veh PLEKHG5 (11737974_s_at) / RFU LRRC4B (11730491_at) / Fold change /veh LRRC4B (11730491_at) / RFU GIMAP4 (11747438_a_at) / Fold change /veh GIMAP4 (11747438_a_at) / RFU KRT8 (11758183_x_at) / Fold change /veh KRT8 (11758183_x_at) / RFU CNN1 (11734310_a_at) / Fold change /veh CNN1 (11734310_a_at) / RFU VPS37D (11726825_at) / Fold change /veh VPS37D (11726825_at) / RFU C10orf10 (11716522_x_at) / Fold change /veh C10orf10 (11716522_x_at) / RFU KIR2DL2 /// KIR2DL4 /// KIR2DL5A /// KIR2DL5B /// KIR2DS1 /// KIR2DS2 /// KIR2DS3 /// KIR2DS4 /// KIR3DL3 /// KIR3DL3 /// KIR3DS1 (11738374_at) / Fold change /veh KIR2DL2 /// KIR2DL4 /// KIR2DL5A /// KIR2DL5B /// KIR2DS1 /// KIR2DS2 /// KIR2DS3 /// KIR2DS4 /// KIR3DL3 /// KIR3DL3 /// KIR3DS1 (11738374_at) / RFU C1QL1 (11718748_at) / Fold change /veh C1QL1 (11718748_at) / RFU TMPRSS4 (11747572_a_at) / Fold change /veh TMPRSS4 (11747572_a_at) / RFU HAMP (11756126_x_at) / Fold change /veh HAMP (11756126_x_at) / RFU RNFT2 (11725882_a_at) / Fold change /veh RNFT2 (11725882_a_at) / RFU NR4A2 (11747474_a_at) / Fold change /veh NR4A2 (11747474_a_at) / RFU ABCC12 (11746883_a_at) / Fold change /veh ABCC12 (11746883_a_at) / RFU TMEM136 (11760407_x_at) / Fold change /veh TMEM136 (11760407_x_at) / RFU CLDN22 /// WWC2 (11732394_at) / Fold change /veh CLDN22 /// WWC2 (11732394_at) / RFU HLA-DPB1 (11760878_x_at) / Fold change /veh HLA-DPB1 (11760878_x_at) / RFU SPINT1 (11716480_a_at) / Fold change /veh SPINT1 (11716480_a_at) / RFU GAP43 (11754022_s_at) / Fold change /veh GAP43 (11754022_s_at) / RFU A4GNT (11735810_at) / Fold change /veh A4GNT (11735810_at) / RFU PRB3 (11715151_x_at) / Fold change /veh PRB3 (11715151_x_at) / RFU TUBB4B (11761932_at) / Fold change /veh TUBB4B (11761932_at) / RFU CAPN14 (11732068_a_at) / Fold change /veh CAPN14 (11732068_a_at) / RFU TMCC2 (11721928_a_at) / Fold change /veh TMCC2 (11721928_a_at) / RFU IRGQ (11745062_a_at) / Fold change /veh IRGQ (11745062_a_at) / RFU FAM174B (11720279_a_at) / Fold change /veh FAM174B (11720279_a_at) / RFU TMPRSS4 (11748680_a_at) / Fold change /veh TMPRSS4 (11748680_a_at) / RFU FAM212B (11763350_a_at) / Fold change /veh FAM212B (11763350_a_at) / RFU PLEKHG5 (11743358_a_at) / Fold change /veh PLEKHG5 (11743358_a_at) / RFU ZSCAN30 (11745921_a_at) / Fold change /veh ZSCAN30 (11745921_a_at) / RFU CMKLR1 (11741424_a_at) / Fold change /veh CMKLR1 (11741424_a_at) / RFU LOC101060620 /// MAPK8IP1 (11723275_at) / Fold change /veh LOC101060620 /// MAPK8IP1 (11723275_at) / RFU SPTSSB (11747773_x_at) / Fold change /veh SPTSSB (11747773_x_at) / RFU PRSS12 (11739890_at) / Fold change /veh PRSS12 (11739890_at) / RFU BIN1 (11741810_x_at) / Fold change /veh BIN1 (11741810_x_at) / RFU WNT11 (11732464_a_at) / Fold change /veh WNT11 (11732464_a_at) / RFU C10orf10 (11716521_a_at) / Fold change /veh C10orf10 (11716521_a_at) / RFU C5orf56 (11738089_at) / Fold change /veh C5orf56 (11738089_at) / RFU CYB561 (11721691_x_at) / Fold change /veh CYB561 (11721691_x_at) / RFU ANKRD19P (11752326_a_at) / Fold change /veh ANKRD19P (11752326_a_at) / RFU OR2T12 /// OR2T33 /// OR2T8 (11738714_s_at) / Fold change /veh OR2T12 /// OR2T33 /// OR2T8 (11738714_s_at) / RFU VCAN (11748164_a_at) / Fold change /veh VCAN (11748164_a_at) / RFU JSRP1 (11732532_at) / Fold change /veh JSRP1 (11732532_at) / RFU KRTAP10-11 (11738290_x_at) / Fold change /veh KRTAP10-11 (11738290_x_at) / RFU MYO3A (11730013_a_at) / Fold change /veh MYO3A (11730013_a_at) / RFU EBF3 (11725865_a_at) / Fold change /veh EBF3 (11725865_a_at) / RFU CAMK2N1 (11719241_x_at) / Fold change /veh CAMK2N1 (11719241_x_at) / RFU C5orf56 (11738088_a_at) / Fold change /veh C5orf56 (11738088_a_at) / RFU OLFML3 (11715873_a_at) / Fold change /veh OLFML3 (11715873_a_at) / RFU LOC100653217 /// NTM (11731650_a_at) / Fold change /veh LOC100653217 /// NTM (11731650_a_at) / RFU MAPK11 (11762145_a_at) / Fold change /veh MAPK11 (11762145_a_at) / RFU FIZ1 (11724087_x_at) / Fold change /veh FIZ1 (11724087_x_at) / RFU OASL (11726364_x_at) / Fold change /veh OASL (11726364_x_at) / RFU SOX15 (11748057_x_at) / Fold change /veh SOX15 (11748057_x_at) / RFU CD79A (11719716_a_at) / Fold change /veh CD79A (11719716_a_at) / RFU HIST1H1D (11736915_at) / Fold change /veh HIST1H1D (11736915_at) / RFU CASKIN2 (11723855_a_at) / Fold change /veh CASKIN2 (11723855_a_at) / RFU LOC730098 (11760151_x_at) / Fold change /veh LOC730098 (11760151_x_at) / RFU OR4N2 (11742367_at) / Fold change /veh OR4N2 (11742367_at) / RFU PRRT2 (11749266_a_at) / Fold change /veh PRRT2 (11749266_a_at) / RFU SNX32 (11753110_a_at) / Fold change /veh SNX32 (11753110_a_at) / RFU CDHR5 (11726645_a_at) / Fold change /veh CDHR5 (11726645_a_at) / RFU RCAN1 (11760418_a_at) / Fold change /veh RCAN1 (11760418_a_at) / RFU FAM167A (11723789_a_at) / Fold change /veh FAM167A (11723789_a_at) / RFU FAM26E (11764081_at) / Fold change /veh FAM26E (11764081_at) / RFU ISYNA1 (11749810_s_at) / Fold change /veh ISYNA1 (11749810_s_at) / RFU ACY1 (11761880_at) / Fold change /veh ACY1 (11761880_at) / RFU 11764098_at / Fold change /veh 11764098_at / RFU SAMD14 (11745864_x_at) / Fold change /veh SAMD14 (11745864_x_at) / RFU NPB (11741838_a_at) / Fold change /veh NPB (11741838_a_at) / RFU TMPRSS6 (11731388_a_at) / Fold change /veh TMPRSS6 (11731388_a_at) / RFU KRTAP10-2 (11738614_at) / Fold change /veh KRTAP10-2 (11738614_at) / RFU ARHGAP8 /// PRR5-ARHGAP8 (11727945_x_at) / Fold change /veh ARHGAP8 /// PRR5-ARHGAP8 (11727945_x_at) / RFU KRTAP5-7 /// NADSYN1 (11734609_at) / Fold change /veh KRTAP5-7 /// NADSYN1 (11734609_at) / RFU RASL12 (11751679_a_at) / Fold change /veh RASL12 (11751679_a_at) / RFU CDKN2B (11736163_a_at) / Fold change /veh CDKN2B (11736163_a_at) / RFU PRF1 (11729649_at) / Fold change /veh PRF1 (11729649_at) / RFU, ZNF638 /// ZNF638-IT1 / Fold change vs veh, ZNF638 /// ZNF638-IT1 / RFU, PANK3 / Fold change vs veh, PANK3 / RFU, SH3YL1 / Fold change vs veh, SH3YL1 / RFU, ZEB2 / Fold change vs veh, ZEB2 / RFU, NRIP1 / Fold change vs veh, NRIP1 / RFU, PTTG1IP / Fold change vs veh, PTTG1IP / RFU, CAPN2 / Fold change vs veh, CAPN2 / RFU, MED14 / Fold change vs veh, MED14 / RFU, SNORA58 / Fold change vs veh, SNORA58 / RFU, C1orf63 / Fold change vs veh, C1orf63 / RFU, LRRFIP1 / Fold change vs veh, LRRFIP1 / RFU, NDUFAF7 / Fold change vs veh, NDUFAF7 / RFU, SLC12A2 / Fold change vs veh, SLC12A2 / RFU, IBTK / Fold change vs veh, IBTK / RFU, ESF1 / Fold change vs veh, ESF1 / Fold change vs veh, TMEM50B / RFU, TAOK1 / Fold change vs veh, TAOK1 / RFU, ACBD3 / Fold change vs veh, ACBD3 / RFU, TMA16 / Fold change vs veh, TMA16 / RFU, RWDD3 / Fold change vs veh, RWDD3 / RFU, BCAT1 / Fold change vs veh, BCAT1 / RFU, EDEM3 / Fold change vs veh, EDEM3 / RFU, TMEM33 / Fold change vs veh, TMEM33 / RFU, WDR75 / Fold change vs veh, WDR75 / RFU, AHCTF1 / Fold change vs veh, AHCTF1 / RFU, TFRC / Fold change vs veh, TFRC / RFU, ZDHHC17 / Fold change vs veh, ZDHHC17 / RFU, NOM1 / Fold change vs veh, NOM1 / RFU, ARL8B / Fold change vs veh, ARL8B / RFU, ZBTB11 / Fold change vs veh, ZBTB11 / RFU, TAMM41 / Fold change vs veh, TAMM41 / RFU, KIAA1704 /// LOC100996395 / Fold change vs veh, KIAA1704 /// LOC100996395 / RFU, ING1 / Fold change vs veh, ING1 / RFU, TRMT61B / Fold change vs veh, TRMT61B / RFU, FUBP3 / Fold change vs veh, FUBP3 / RFU, TP53 / Fold change vs veh, TP53 / RFU, TNKS2 / Fold change vs veh, TNKS2 / RFU, ZFP14 / Fold change vs veh, ZFP14 / RFU, ACTR2 / Fold change vs veh, ACTR2 / RFU, PPP3R1 / Fold change vs veh, PPP3R1 / RFU, PIK3R1 / Fold change vs veh, PIK3R1 / RFU, HNRNPA1 / Fold change vs veh, HNRNPA1 / RFU, RNF170 / Fold change vs veh, RNF170 / RFU, ZNF28 / Fold change vs veh, ZNF28 / RFU, RNGTT / Fold change vs veh, RNGTT / RFU, OGT / Fold change vs veh, OGT / RFU, BRD1 / Fold change vs veh, BRD1 / RFU, MARS / Fold change vs veh, MARS / RFU, ZNF655 / Fold change vs veh, ZNF655 / RFU, FAHD1 / Fold change vs veh, FAHD1 / RFU, BDP1 / Fold change vs veh, BDP1 / RFU, LRRCC1 / Fold change vs veh, LRRCC1 / RFU, ARID1A / Fold change vs veh, ARID1A / RFU, ZNF146 / Fold change vs veh, ZNF146 / RFU, ZNF330 / Fold change vs veh, ZNF330 / RFU, GPN3 / Fold change vs veh, GPN3 / RFU, C9orf123 / Fold change vs veh, C9orf123 / RFU, N4BP2L2 / Fold change vs veh, N4BP2L2 / RFU, ARFIP1 / Fold change vs veh, ARFIP1 / RFU, FAM179B / Fold change vs veh, FAM179B / RFU, BCL10 / Fold change vs veh, BCL10 / RFU, UHRF1BP1L / Fold change vs veh, UHRF1BP1L / RFU, BET1 / Fold change vs veh, BET1 / RFU, CNOT2 / Fold change vs veh, CNOT2 / RFU, ZNF268 / Fold change vs veh, ZNF268 / Fold change vs veh, ZNF507 / RFU, DGCR2 / Fold change vs veh, DGCR2 / RFU, WDSUB1 / Fold change vs veh, WDSUB1 / Fold change vs veh, HSP90B1 /// MIR3652 / RFU, ADSS / Fold change vs veh, ADSS / RFU, GK / Fold change vs veh, GK / RFU, ZNF148 / Fold change vs veh, ZNF148 / RFU, TAF9 / Fold change vs veh, TAF9 / RFU, SLC1A5 / Fold change vs veh, SLC1A5 / RFU, SLMO2 / Fold change vs veh, SLMO2 / RFU, ABCC4 / Fold change vs veh, ABCC4 / RFU, LOC101060439 /// RAP1B / Fold change vs veh, LOC101060439 /// RAP1B / RFU, RFX7 / Fold change vs veh, RFX7 / RFU, GTPBP10 / Fold change vs veh, GTPBP10 / RFU, CNEP1R1 / Fold change vs veh, CNEP1R1 / RFU, BIVM-ERCC5 /// ERCC5 / Fold change vs veh, BIVM-ERCC5 /// ERCC5 / RFU, ILF3 / Fold change vs veh, ILF3 / RFU 11762660_at / Fold change /veh 11762660_at / RFU VCAN (11757783_s_at) / Fold change /veh VCAN (11757783_s_at) / RFU DDX43 (11728927_at) / Fold change /veh DDX43 (11728927_at) / RFU KRT8 (11758188_x_at) / Fold change /veh KRT8 (11758188_x_at) / RFU NKD1 (11759106_at) / Fold change /veh NKD1 (11759106_at) / RFU SRD5A1 (11742802_a_at) / Fold change /veh SRD5A1 (11742802_a_at) / RFU TPSAB1 /// TPSB2 (11721975_s_at) / Fold change /veh TPSAB1 /// TPSB2 (11721975_s_at) / RFU GSTM3 (11746129_a_at) / Fold change /veh GSTM3 (11746129_a_at) / RFU IL23R (11737362_x_at) / Fold change /veh IL23R (11737362_x_at) / RFU TMEM51 (11727254_a_at) / Fold change /veh TMEM51 (11727254_a_at) / RFU PIWIL2 (11732686_x_at) / Fold change /veh PIWIL2 (11732686_x_at) / RFU ORM1 (11744905_x_at) / Fold change /veh ORM1 (11744905_x_at) / RFU CCDC152 (11743942_at) / Fold change /veh CCDC152 (11743942_at) / RFU ECM1 (11717891_a_at) / Fold change /veh ECM1 (11717891_a_at) / RFU IL23R (11748794_a_at) / Fold change /veh IL23R (11748794_a_at) / RFU TNFAIP8L3 (11732012_x_at) / Fold change /veh TNFAIP8L3 (11732012_x_at) / RFU MBOAT4 (11741988_at) / Fold change /veh MBOAT4 (11741988_at) / RFU 11764193_at / Fold change /veh 11764193_at / RFU TMEM53 (11763286_at) / Fold change /veh TMEM53 (11763286_at) / RFU MAGEB2 (11727129_at) / Fold change /veh MAGEB2 (11727129_at) / RFU TMEM200A (11744735_a_at) / Fold change /veh TMEM200A (11744735_a_at) / RFU CCDC152 (11751479_a_at) / Fold change /veh CCDC152 (11751479_a_at) / RFU FAM211A (11726209_a_at) / Fold change /veh FAM211A (11726209_a_at) / RFU RGS16 (11746705_a_at) / Fold change /veh RGS16 (11746705_a_at) / RFU VCAN (11755009_s_at) / Fold change /veh VCAN (11755009_s_at) / RFU RHOB (11743442_s_at) / Fold change /veh RHOB (11743442_s_at) / RFU RGS16 (11720943_a_at) / Fold change /veh RGS16 (11720943_a_at) / RFU RGS16 (11720944_at) / Fold change /veh RGS16 (11720944_at) / RFU, VPS4B / Fold change vs veh, VPS4B / RFU, CREB1 / Fold change vs veh, CREB1 / RFU, DNAJC13 / Fold change vs veh, DNAJC13 / RFU, GNAQ / Fold change vs veh, GNAQ / RFU, CDK5R1 / Fold change vs veh, CDK5R1 / RFU, ZRANB3 / Fold change vs veh, ZRANB3 / RFU, CUL4A / Fold change vs veh, CUL4A / RFU, CCNY / Fold change vs veh, CCNY / RFU, UFL1 / Fold change vs veh, UFL1 / RFU, COG3 / Fold change vs veh, COG3 / RFU, DIAPH2 / Fold change vs veh, DIAPH2 / RFU, SKA2 / Fold change vs veh, SKA2 / RFU, AFF3 / Fold change vs veh, AFF3 / RFU, LMF1 / Fold change vs veh, LMF1 / RFU, IPO11 / Fold change vs veh, IPO11 / RFU, DFFB / Fold change vs veh, DFFB / RFU, FOXP1 / Fold change vs veh, FOXP1 / RFU, CARD8 / Fold change vs veh, CARD8 / RFU, STRN3 / Fold change vs veh, STRN3 / RFU, ADK / Fold change vs veh, ADK / RFU, RASSF2 / Fold change vs veh, RASSF2 / RFU, WIPF1 / Fold change vs veh, WIPF1 / RFU, LARP1B / Fold change vs veh, LARP1B / RFU, RASA1 / Fold change vs veh, RASA1 / RFU, RB1 / Fold change vs veh, RB1 / RFU, PPFIA1 / Fold change vs veh, PPFIA1 / RFU, MAT2A / Fold change vs veh, MAT2A / RFU, CCT5 / Fold change vs veh, CCT5 / RFU, WDR92 / Fold change vs veh, WDR92 / RFU, CUX1 / Fold change vs veh, CUX1 / RFU, TTC7A / Fold change vs veh, TTC7A / RFU, TMEM135 / Fold change vs veh, TMEM135 / RFU, DEPTOR / Fold change vs veh, DEPTOR / RFU, CPM / Fold change vs veh, CPM / RFU, DNAJB6 / Fold change vs veh, DNAJB6 / RFU, CACNA2D3 / Fold change vs veh, CACNA2D3 / RFU, DTX4 / Fold change vs veh, DTX4 / RFU, TFCP2 / Fold change vs veh, TFCP2 / RFU, GMCL1 /// GMCL1P1 / Fold change vs veh, GMCL1 /// GMCL1P1 / RFU, AEBP2 / Fold change vs veh, AEBP2 / RFU, SNHG1 /// SNORD22 /// SNORD25 /// SNORD26 /// SNORD27 /// SNORD28 /// SNORD29 /// SNORD31 / Fold change vs veh, SNHG1 /// SNORD22 /// SNORD25 /// SNORD26 /// SNORD27 /// SNORD28 /// SNORD29 /// SNORD31 / Fold change (Aza/veh), C12orf56 (ProbeSet 11735607_a_at) / Fold change (ACY-1035/veh), C12orf56 (ProbeSet 11735607_a_at) / Fold change (Aza/veh), FGFR1OP (ProbeSet 11751329_s_at) / Fold change (ACY-1035/veh), FGFR1OP (ProbeSet 11751329_s_at) / Fold change (Aza/veh), VPS36 (ProbeSet 11739960_a_at) / Fold change (ACY-1035/veh), VPS36 (ProbeSet 11739960_a_at) / RFU SYPL1 (11715823_x_at) / Fold change /veh SYPL1 (11715823_x_at) / RFU IGFBP7 (11715501_s_at) / Fold change /veh IGFBP7 (11715501_s_at) / RFU REEP3 (11722064_at) / Fold change /veh REEP3 (11722064_at) / RFU IGLL1 (11728026_x_at) / Fold change /veh IGLL1 (11728026_x_at): dose or concentration left out as unconfirmed",
  "conditions": "MV-4-11 cells, 48 hours",
  "data": [
    {"compound": "Nc1ncn([C@@H]2O[C@H](CO)[C@@H](O)[C@H]2O)c(=O)n1", "note": "[azacitidine]", "values": [
      {"measurement": "Fold change /veh TMCC2 (11721928_a_at)", "result": 0.97}
    ]}
  ]
}
